Test results as given in patent publication US20250042889A1, “3CLPRO PROTEASE INHIBITOR” (SHANGHAI QILU PHARMACEUTICAL RESEARCH AND DEVELOPMENT …, priority 2021, published 2025).

Biological target: SARS-COV-2 3CLpro/Mpro protease (Severe acute respiratory syndrome coronavirus 2 (2019-nCoV) (SARS-CoV-2), UniProt P0DTD1)
Assay: Inhibitory effect on SARS-COV-2 3CLpro/Mpro protease by fluorescence resonance energy transfer
Type: biochemical
Settings: activity intervals A-D, read-out: IC50 (nM), Inhibition on SARS-CoV-2 3CLpro/Mpro protease

| SMILES | IC50 |
| --- | --- |
| O=C(c1cc(Br)cc([N+](=O)[O-])c1N[C@@H]1CCCN(C(=O)c2cncc3ccccc23)C1)N1CCOCC1 [Example 38] | < 10 nM |
| O=C(c1cc(Br)cc([N+](=O)[O-])c1N[C@@H]1CCCN(C(=O)c2cncc3ccccc23)C1)N1CCCC1 [Example 39] | < 10 nM |
| O=C(c1cc(Br)cc([N+](=O)[O-])c1N[C@@H]1CCN(C(=O)c2cncc3ccccc23)C1)N1CCCC1 [Example 40] | 10 to 50 nM |
| N#Cc1cncc(C(=O)N2CCC[C@@H](Nc3c(C(=O)N4CCCCC4)cc(Br)cc3[N+](=O)[O-])C2)c1 [Example 41] | 10 to 50 nM |
| Nc1cncc(C(=O)N2CCC[C@@H](Nc3c(C(=O)N4CCCCC4)cc(Br)cc3[N+](=O)[O-])C2)c1 [Example 42] | 10 to 50 nM |
| Cc1cncc(C(=O)N2CCC[C@@H](Nc3c(C(=O)N4CCCCC4)cc(Br)cc3[N+](=O)[O-])C2)c1 [Example 43] | 10 to 50 nM |
| O=C(c1cncc(Br)c1)N1CCC[C@@H](Nc2c(C(=O)N3CC4CC4C3)cc(Br)cc2[N+](=O)[O-])C1 (stereo partly shown) [Example 44] | < 10 nM |
| O=C(c1cncc(C2CC2)c1)N1CCC[C@@H](Nc2c(C(=O)N3CCCCC3)cc(Br)cc2[N+](=O)[O-])C1 [Example 45] | 10 to 50 nM |
| Cc1c(Br)cncc1C(=O)N1CCC[C@@H](Nc2c(C(=O)N3CCCCC3)cc(Br)cc2[N+](=O)[O-])C1 [Example 46] | 10 to 50 nM |
| O=C(c1cncc(Br)c1)N1CC[C@@H](Nc2c(C(=O)N3CCCCC3)cc(Br)cc2C(F)(F)F)C1 [Example 47] | 10 to 50 nM |
| O=C(c1cc(Br)cc(C(F)(F)F)c1N[C@@H]1CCN(C(=O)c2cncc3ccccc23)C1)N1CCCCC1 [Example 48] | 10 to 50 nM |
| O=C(c1cncc(Br)c1)N1CCC[C@@H](Nc2c(C(=O)N3CCC(F)(F)CC3)cc(Br)cc2C(F)(F)F)C1 [Example 49] | 10 to 50 nM |
| O=C(c1cncc(O)c1)N1CCC[C@@H](Nc2c(C(=O)N3CCC(F)(F)CC3)cc(Br)cc2[N+](=O)[O-])C1 [Example 50] | 50 to 100 nM |
| O=C(c1cc(Br)cc([N+](=O)[O-])c1N[C@@H]1CCN(C(=O)c2cncc3cc(Cl)ccc23)C1)N1CC2CC2C1 (stereo partly shown) [Example 51] | 10 to 50 nM |
| O=C(c1cc(=O)[nH]c(=O)[nH]1)N1CCC[C@@H](Nc2c(C(=O)N3CCC(F)(F)CC3)cc(Br)cc2[N+](=O)[O-])C1 [Example 53] | 50 to 100 nM |
| O=C(c1cc(Br)cc([N+](=O)[O-])c1N[C@@H]1CCCN(C(=O)c2cc(=O)[nH]c3ccccc23)C1)N1CCC(F)(F)CC1 [Example 54] | 10 to 50 nM |
| CNc1cncc(C(=O)N2CCC[C@@H](Nc3c(C(=O)N4CCO[C@H](C(F)F)C4)cc(Br)cc3[N+](=O)[O-])C2)c1 [Example 55] | 10 to 50 nM |
| O=C(c1cc(Br)cc([N+](=O)[O-])c1N[C@@H]1CCCN(C(=O)c2cnnc3ccccc23)C1)N1CCCCC1 [Example 56] | 10 to 50 nM |
| N#Cc1cc(Cl)cc(C(=O)N2CCCCC2)c1N[C@@H]1CCCN(C(=O)c2cncc3ccccc23)C1 [Example 59] | 10 to 50 nM |
| O=C(c1cncnc1)N1CCC[C@@H](Nc2c(C(=O)N3CCCCC3)cc(Br)cc2[N+](=O)[O-])C1 [Example 60] | 50 to 100 nM |
| O=C(c1cncc(OC(F)F)c1)N1CCC[C@@H](Nc2c(C(=O)N3CCCCC3)cc(Br)cc2[N+](=O)[O-])C1 [Example 61] | 50 to 100 nM |

| SMILES | IC50 |
| --- | --- |
| O=C(c1cncc(Br)c1)N1CC[C@@H](Nc2c(C(=O)N3CCCCC3)cc(Br)cc2[N+](=O)[O-])C1 [Example 64] | 10 to 50 nM |
| O=C(c1cncc(Br)c1)N1CCC[C@@H](Nc2c(C(=O)N3CCCC3)cc(Br)cc2[N+](=O)[O-])C1 [Example 65] | 10 to 50 nM |
| O=C(c1cncc(Br)c1)N1CCC[C@@H](Nc2c(C(=O)N3CCCCC3)cc(Br)cc2C(F)(F)F)C1 [Example 66] | 10 to 50 nM |
| O=C(c1cc(Br)cc(C(F)(F)F)c1N[C@@H]1CCCN(C(=O)c2cncc3ccccc23)C1)N1CCCCC1 [Example 67] | 10 to 50 nM |
| O=C(c1cncc(Br)c1)N1CC[C@@H](Nc2c(C(=O)N3CCCCC3)cc(Br)cc2C(F)(F)F)C1 [Example 68] | 50 to 100 nM |
| O=C(c1cncc(Br)c1)N1CC[C@@H](Nc2c(C(=O)N3CCC(F)(F)CC3)cc(Br)cc2C(F)(F)F)C1 [Example 69] | 50 to 100 nM |
| O=C(c1cncc(C(F)(F)F)c1)N1CCC[C@@H](Nc2c(C(=O)N3CCC(F)(F)CC3)cc(Br)cc2[N+](=O)[O-])C1 [Example 70] | 10 to 50 nM |
| Nc1cncc(C(=O)N2CCC[C@@H](Nc3c(C(=O)N4CCC(F)(F)CC4)cc(Br)cc3[N+](=O)[O-])C2)c1 [Example 71] | 10 to 50 nM |
| C[C@@H]1C[C@H](C)CN(C(=O)c2cc(Br)cc([N+](=O)[O-])c2N[C@@H]2CCCN(C(=O)c3cncc(Br)c3)C2)C1 [Example 72] | < 10 nM |
| C[C@@H]1CN(C(=O)c2cc(Br)cc([N+](=O)[O-])c2N[C@@H]2CCCN(C(=O)c3cncc(Br)c3)C2)C[C@H](C)N1 [Example 73] | 10 to 50 nM |
| Cc1cncc(C(=O)N2CCC[C@@H](Nc3c(C(=O)N4CCC(F)(F)CC4)cc(Br)cc3[N+](=O)[O-])C2)c1 [Example 74] | 50 to 100 nM |
| O=C(c1cncc(I)c1)N1CCC[C@@H](Nc2c(C(=O)N3CCC(F)(F)CC3)cc(Br)cc2[N+](=O)[O-])C1 [Example 75] | < 10 nM |
| C[C@@H]1CN(C(=O)c2cc(Br)cc([N+](=O)[O-])c2N[C@@H]2CCN(C(=O)c3cncc(Br)c3)C2)C[C@H](C)O1 [Example 76] | < 10 nM |
| CNc1cncc(C(=O)N2CCC[C@@H](Nc3c(C(=O)N4C[C@@H](C)N(C)[C@@H](C)C4)cc(Br)cc3[N+](=O)[O-])C2)c1 [Example 79] | 50 to 100 nM |
| CNc1cncc(C(=O)N2C[C@H](Nc3c(C(=O)N4CCCCC4)cc(Br)cc3[N+](=O)[O-])C(F)(F)C2)c1 [Example 81] | 10 to 50 nM |
| CNc1cncc(C(=O)N2C[C@H](Nc3c(C(=O)N4CCCCC4)cc(Br)cc3[N+](=O)[O-])C3(CC3)C2)c1 [Example 82] | 10 to 50 nM |
| CNc1cncc(C(=O)N2C[C@H](Nc3c(C(=O)N4CC5C(C4)C5(C)C)cc(Br)cc3[N+](=O)[O-])C3(CC3)C2)c1 (stereo partly shown) [Example 83] | 10 to 50 nM |
| CNc1cncc(C(=O)N2C[C@H](Nc3c(C(=O)N4CCN(CC(F)(F)F)CC4)cc(Br)cc3[N+](=O)[O-])C3(CC3)C2)c1 [Example 84] | 10 to 50 nM |
| CNc1cncc(C(=O)N2C[C@H](Nc3c(C(=O)N4CCN(CC(F)(F)F)C(=O)C4)cc(Br)cc3[N+](=O)[O-])C3(CC3)C2)c1 [Example 85] | 10 to 50 nM |
| CNc1cncc(C(=O)N2C[C@H](Nc3c(C(=O)N4C[C@H](C)C[C@H](C)C4)cc(Br)cc3[N+](=O)[O-])C3(CC3)C2)c1 [Example 86] | 10 to 50 nM |
| CNc1cncc(C(=O)N2C[C@H](Nc3c(C(=O)N4CCC(C)(C)CC4)cc(Br)cc3[N+](=O)[O-])C3(CC3)C2)c1 [Example 87] | 10 to 50 nM |

| SMILES | IC50 |
| --- | --- |
| Cc1cc(C(=O)N2C[C@H](Nc3c(C(=O)N4CC5C(C4)C5(C)C)cc(Br)cc3[N+](=O)[O-])C3(CC3)C2)cc(=O)[nH]1 (stereo partly shown) [Example 88] | 10 to 50 nM |
| Cc1cc(C(=O)N2C[C@H](Nc3c(C(=O)NCC(F)(F)F)cc(Br)cc3[N+](=O)[O-])C3(CC3)C2)cc(=O)[nH]1 [Example 89] | 10 to 50 nM |
| Cc1cc(C(=O)N2C[C@H](Nc3c(C(=O)N4CCN(CC(F)(F)F)CC4)cc(Br)cc3[N+](=O)[O-])C3(CC3)C2)cc(=O)[nH]1 [Example 90] | 10 to 50 nM |
| Cc1cc(C(=O)N2C[C@H](Nc3c(C(=O)N4CCN(CC(F)(F)F)C(=O)C4)cc(Br)cc3[N+](=O)[O-])C3(CC3)C2)cc(=O)[nH]1 [Example 91] | 10 to 50 nM |
| Cc1cc(C(=O)N2C[C@H](Nc3c(C(=O)N4C[C@H](C)C[C@H](C)C4)cc(Br)cc3[N+](=O)[O-])C3(CC3)C2)cc(=O)[nH]1 [Example 92] | 10 to 50 nM |
| Cc1cc(C(=O)N2C[C@H](Nc3c(C(=O)N4CCC(C)(C)CC4)cc(Br)cc3[N+](=O)[O-])C3(CC3)C2)cc(=O)[nH]1 [Example 93] | 10 to 50 nM |
| Cc1cc(C(=O)N2C[C@H](Nc3c(C(=O)N4CCC5(CC4)CC5)cc(Br)cc3[N+](=O)[O-])C3(CC3)C2)cc(=O)[nH]1 [Example 94] | 10 to 50 nM |
| Cc1cc(C(=O)N2C[C@H](Nc3c(C(=O)N4CCC5(CCC5)CC4)cc(Br)cc3[N+](=O)[O-])C3(CC3)C2)cc(=O)[nH]1 [Example 95] | 10 to 50 nM |
| CNc1cncc(C(=O)N2CCC[C@@H](Nc3c(C(=O)N4CC(=O)NC(C)C4)cc(Br)cc3[N+](=O)[O-])C2)c1 (stereo partly shown) [Example 96] | 50 to 100 nM |
| CNc1cncc(C(=O)N2CC(Nc3c(C(=O)N4CCN(CC(F)(F)F)CC4)cc(Br)cc3[N+](=O)[O-])C(F)(F)C2)c1 (stereo not shown) [Example 98] | 10 to 50 nM |
| CNc1cncc(C(=O)N2CC(Nc3c(C(=O)N4CCN(CC(F)(F)F)C(=O)C4)cc(Br)cc3[N+](=O)[O-])C(F)(F)C2)c1 (stereo not shown) [Example 99] | 100 to 200 nM |
| CNc1cncc(C(=O)N2CC(Nc3c(C(=O)N4C[C@H](C)C[C@H](C)C4)cc(Br)cc3[N+](=O)[O-])C(F)(F)C2)c1 (stereo partly shown) [Example 100] | 10 to 50 nM |
| Cc1cc(C(=O)N2CC(Nc3c(C(=O)N4CCCCC4)cc(Br)cc3[N+](=O)[O-])C(F)(F)C2)cc(=O)[nH]1 (stereo not shown) [Example 101] | 50 to 100 nM |
| CC1(Nc2c(C(=O)N3CCCCC3)cc(Br)cc2[N+](=O)[O-])CCCN(C(=O)c2cncc3ccccc23)C1 (stereo not shown) [Example 102] | 10 to 50 nM |
| O=C(c1cc(Br)cc([N+](=O)[O-])c1N[C@@H]1CCCN(C(=O)c2cncc3cc(F)ccc23)C1)N1CCCCC1 [Example 103] | 10 to 50 nM |
| O=C(c1cncc(Br)c1)N1CC(Nc2c(C(=O)N3CCC(F)(F)CC3)cc(Br)cc2[N+](=O)[O-])C(F)(F)C1 (stereo not shown) [Example 104] | 10 to 50 nM |
| O=C(c1cc(Br)c[n+]([O-])c1)N1CCC[C@@H](Nc2c(C(=O)N3CCC(F)(F)CC3)cc(Br)cc2[N+](=O)[O-])C1 [Example 105] | 50 to 100 nM |
| O=C(c1cc(Br)cnc1F)N1CCC[C@@H](Nc2c(C(=O)N3CCC(F)(F)CC3)cc(Br)cc2[N+](=O)[O-])C1 [Example 106] | 10 to 50 nM |
| O=C(N[C@H]1CCCC[C@H]1Nc1c(C(=O)N2CCOCC2)cc(Br)cc1[N+](=O)[O-])c1cc(=O)[nH]c2ccccc12 [Example 107] | 10 to 50 nM |
